Assay results from ChEMBL document CHEMBL5500347, “An update on antibacterial AlkylGuanidino Ureas: Design of new derivatives, synergism with colistin and data analysis of the whole library” (2024).
Values after ≈ are worked out from the molar mass of the structure shown.

Key:
Type in all cases: functional
Klebsiella pneumoniae = assay: Antibacterial activity against Klebsiella pneumoniae ATCC 13833 incubated for 18 to 24 hrs by CLSI based microdilution broth method; conditions: Klebsiella pneumoniae, ATCC 13833; time 18-24 hrs; read-out: MIC
Acinetobacter baumannii = assay: Antibacterial activity against Acinetobacter baumannii ATCC 17978 incubated for 18 to 24 hrs by CLSI based microdilution broth method; conditions: Acinetobacter baumannii, ATCC 17978; time 18-24 hrs
Streptococcus pyogenes = assay: Antibacterial activity against Streptococcus pyogenes ATCC 12344 incubated for 18 to 24 hrs by CLSI based microdilution broth method; conditions: time 18-24 hrs
Pseudomonas aeruginosa = assay: Antibacterial activity against Pseudomonas aeruginosa ATCC 27853 incubated for 18 to 24 hrs by CLSI based microdilution broth method; conditions: Pseudomonas aeruginosa, ATCC 27853; time 18-24 hrs
Bacillus subtilis = assay: Antibacterial activity against Bacillus subtilis ATCC 6633 incubated for 18 to 24 hrs by CLSI based microdilution broth method; conditions: time 18-24 hrs
Enterococcus faecalis = assay: Antibacterial activity against Enterococcus faecalis ATCC 19433 incubated for 18 to 24 hrs by CLSI based microdilution broth method; conditions: time 18-24 hrs
Staphylococcus aureus = assay: Antibacterial activity against Staphylococcus aureus ATCC 25923 incubated for 18 to 24 hrs by CLSI based microdilution broth method; conditions: time 18-24 hrs
Escherichia coli = assay: Antibacterial activity against Escherichia coli CCUGT incubated for 18 to 24 hrs by CLSI based microdilution broth method; conditions: Escherichia coli, CCUGT; time 18-24 hrs; read-out: MIC

COCCNC(=N)NCCCCCCCCN(CCCCCCCCNC(=N)N)C(=O)N(CCCCCCCCNC(=N)N)CCCCCCCCNC(=N)NCCOC.O=C(O)C(F)(F)F
MIC (Klebsiella pneumoniae): 2 µg/mL | MIC (Acinetobacter baumannii): 8 µg/mL | MIC (Streptococcus pyogenes): 0.5 µg/mL | MIC (Pseudomonas aeruginosa): 16 µg/mL | MIC (Bacillus subtilis): 0.5 µg/mL | MIC (Enterococcus faecalis): 1 µg/mL | MIC (Staphylococcus aureus): 0.5 µg/mL | MIC (Escherichia coli): 1 µg/mL

N=C(N)NCCCCCCCN(CCCCCCCNC(=N)NCC1CC1)C(=O)N(CCCCCCNC(=N)N)CCCCCCNC(=N)NCC1CC1.O=C(O)C(F)(F)F
MIC (Klebsiella pneumoniae): 8 µg/mL | MIC (Acinetobacter baumannii): 32 µg/mL | MIC (Streptococcus pyogenes): 4 µg/mL | MIC (Pseudomonas aeruginosa): 32 µg/mL | MIC (Bacillus subtilis): 2 µg/mL | MIC (Enterococcus faecalis): 4 µg/mL | MIC (Staphylococcus aureus): 1 µg/mL | MIC (Escherichia coli): 16 µg/mL

CSCCNC(=N)NCCCCCCCCN(CCCCCCCCNC(=N)N)C(=O)N(CCCCCCCCNC(=N)N)CCCCCCCCNC(=N)NCCSC.O=C(O)C(F)(F)F
MIC (Klebsiella pneumoniae): 4 µg/mL | MIC (Acinetobacter baumannii): 16 µg/mL | MIC (Streptococcus pyogenes): 1 µg/mL | MIC (Pseudomonas aeruginosa): 32 µg/mL | MIC (Bacillus subtilis): 1 µg/mL | MIC (Enterococcus faecalis): 2 µg/mL | MIC (Staphylococcus aureus): 0.5 µg/mL | MIC (Escherichia coli): 2 µg/mL

CC(C)=CCC/C(C)=C/CNC(=N)NCCCCCCCCN(CCCCCCCCNC(=N)N)C(=O)N(CCCCCCCCNC(=N)N)CCCCCCCCNC(=N)NC/C=C(\C)CCC=C(C)C.O=C(O)C(F)(F)F
MIC (Klebsiella pneumoniae): 2 µg/mL | MIC (Acinetobacter baumannii): 4 µg/mL | MIC (Streptococcus pyogenes): 2 µg/mL | MIC (Pseudomonas aeruginosa): 8 µg/mL | MIC (Bacillus subtilis): 2 µg/mL | MIC (Enterococcus faecalis): 2 µg/mL | MIC (Staphylococcus aureus): 1 µg/mL | MIC (Escherichia coli): 2 µg/mL

CCCCNC(=N)NCCCCCCCCN(CCCCCCCCNC(=N)N)C(=O)N(CCCCCCCCNC(=N)N)CCCCCCCCNC(=N)NCCCC.O=C(O)C(F)(F)F
MIC (Klebsiella pneumoniae): 2 µg/mL | MIC (Acinetobacter baumannii): 4 µg/mL | MIC (Streptococcus pyogenes): 2 µg/mL | MIC (Pseudomonas aeruginosa): 8 µg/mL | MIC (Bacillus subtilis): 1 µg/mL | MIC (Enterococcus faecalis): 2 µg/mL | MIC (Staphylococcus aureus): 1 µg/mL | MIC (Escherichia coli): 2 µg/mL

CCCCCCCCCC(=O)N[C@@H](Cc1c[nH]c2ccccc12)C(=O)N[C@H](CC(N)=O)C(=O)N[C@@H](CC(=O)O)C(=O)N[C@@H]1C(=O)NCC(=O)N[C@@H](CCCN)C(=O)N[C@@H](CC(=O)O)C(=O)N[C@H](C)C(=O)N[C@@H](CC(=O)O)C(=O)NCC(=O)N[C@H](CO)C(=O)N[C@@H]([C@H](C)CC(=O)O)C(=O)N[C@@H](CC(=O)c2ccccc2N)C(=O)O[C@@H]1C
MIC (Streptococcus pyogenes): 0.5 µg/mL (≈ 0.309 µM) | MIC (Bacillus subtilis): 1 µg/mL (≈ 0.617 µM) | MIC (Enterococcus faecalis): 1 µg/mL (≈ 0.617 µM) | MIC (Staphylococcus aureus): 0.12 µg/mL (≈ 0.074 µM)

N=C(N)NCCCCCCN(CCCCCCCCNC(=N)NCC1CC1)C(=O)N(CCCCCCCCNC(=N)NCC1CC1)CCCCCCNC(=N)N.O=C(O)C(F)(F)F
MIC (Klebsiella pneumoniae): 2 µg/mL | MIC (Acinetobacter baumannii): 32 µg/mL | MIC (Streptococcus pyogenes): 1 µg/mL | MIC (Pseudomonas aeruginosa): 32 µg/mL | MIC (Bacillus subtilis): 1 µg/mL | MIC (Enterococcus faecalis): 4 µg/mL | MIC (Staphylococcus aureus): 0.25 µg/mL | MIC (Escherichia coli): 2 µg/mL

N=C(N)NCCCCCCCN(CCCCCCCNC(=N)NCC1CC1)C(=O)N(CCCCCCCNC(=N)N)CCCCCCCNC(=N)NCC1CC1.O=C(O)C(F)(F)F
MIC (Klebsiella pneumoniae): 8 µg/mL | MIC (Acinetobacter baumannii): 32 µg/mL | MIC (Streptococcus pyogenes): 4 µg/mL | MIC (Pseudomonas aeruginosa): 32 µg/mL | MIC (Bacillus subtilis): 2 µg/mL | MIC (Enterococcus faecalis): 8 µg/mL | MIC (Staphylococcus aureus): 2 µg/mL | MIC (Escherichia coli): 8 µg/mL

N=C(N)NCCCCCCCCN(CCCCCCCCNC(=N)NC1CCCC1)C(=O)N(CCCCCCCCNC(=N)N)CCCCCCCCNC(=N)NC1CCCC1.O=C(O)C(F)(F)F
MIC (Klebsiella pneumoniae): 1 µg/mL | MIC (Acinetobacter baumannii): 4 µg/mL | MIC (Streptococcus pyogenes): 1 µg/mL | MIC (Pseudomonas aeruginosa): 8 µg/mL | MIC (Bacillus subtilis): 1 µg/mL | MIC (Enterococcus faecalis): 1 µg/mL | MIC (Staphylococcus aureus): 0.25 µg/mL | MIC (Escherichia coli): 1 µg/mL

N=C(N)NCCCCCCCCN(CCCCCCCCNC(=N)NCCC12CC3CC(CC(C3)C1)C2)C(=O)N(CCCCCCCCNC(=N)N)CCCCCCCCNC(=N)NCCC12CC3CC(CC(C3)C1)C2.O=C(O)C(F)(F)F
MIC (Klebsiella pneumoniae): 32 µg/mL | MIC (Acinetobacter baumannii): 64 µg/mL | MIC (Streptococcus pyogenes): 16 µg/mL | MIC (Pseudomonas aeruginosa): 128 µg/mL | MIC (Bacillus subtilis): 16 µg/mL | MIC (Enterococcus faecalis): 16 µg/mL | MIC (Staphylococcus aureus): 8 µg/mL | MIC (Escherichia coli): 32 µg/mL

CNC(=O)NCCCCCCCCN(CCCCCCCCNC(=N)NCC1CC1)C(=O)N(CCCCCCCCNC(=N)NCC1CC1)CCCCCCCCNC(=O)NC.O=C(O)C(F)(F)F
MIC (Klebsiella pneumoniae): 16 µg/mL | MIC (Acinetobacter baumannii): 64 µg/mL | MIC (Streptococcus pyogenes): 4 µg/mL | MIC (Pseudomonas aeruginosa): 128 µg/mL | MIC (Bacillus subtilis): 4 µg/mL | MIC (Enterococcus faecalis): 8 µg/mL | MIC (Staphylococcus aureus): 4 µg/mL | MIC (Escherichia coli): 16 µg/mL

CCCNC(=N)NCCCCCCCCN(CCCCCCCCNC(=N)N)C(=O)N(CCCCCCCCNC(=N)N)CCCCCCCCNC(=N)NCCC.O=C(O)C(F)(F)F
MIC (Klebsiella pneumoniae): 1 µg/mL | MIC (Acinetobacter baumannii): 8 µg/mL | MIC (Streptococcus pyogenes): 1 µg/mL | MIC (Pseudomonas aeruginosa): 8 µg/mL | MIC (Bacillus subtilis): 1 µg/mL | MIC (Enterococcus faecalis): 1 µg/mL | MIC (Staphylococcus aureus): 0.5 µg/mL | MIC (Escherichia coli): 0.5 µg/mL

CNC(=S)NCCCCCCCCN(CCCCCCCCNC(=N)NCC1CC1)C(=O)N(CCCCCCCCNC(=N)NCC1CC1)CCCCCCCCNC(=S)NC.O=C(O)C(F)(F)F
MIC (Klebsiella pneumoniae): 16 µg/mL | MIC (Acinetobacter baumannii): 128 µg/mL | MIC (Streptococcus pyogenes): 4 µg/mL | MIC (Pseudomonas aeruginosa): 64 µg/mL | MIC (Bacillus subtilis): 4 µg/mL | MIC (Enterococcus faecalis): 4 µg/mL | MIC (Staphylococcus aureus): 2 µg/mL | MIC (Escherichia coli): 8 µg/mL

O=C(O)C(F)(F)F.[N-]=[N+]=NCCCCCCCCN(CCCCCCCCNC(=N)NCC1CC1)C(=O)N(CCCCCCCCN=[N+]=[N-])CCCCCCCCNC(=N)NCC1CC1
MIC (Klebsiella pneumoniae): 16 µg/mL | MIC (Acinetobacter baumannii): 64 µg/mL | MIC (Streptococcus pyogenes): 8 µg/mL | MIC (Pseudomonas aeruginosa): 128 µg/mL | MIC (Bacillus subtilis): 32 µg/mL | MIC (Enterococcus faecalis): 8 µg/mL | MIC (Staphylococcus aureus): 4 µg/mL | MIC (Escherichia coli): 16 µg/mL

CC(C)NC(=N)NCCCCCCCCN(CCCCCCCCNC(=N)N)C(=O)N(CCCCCCCCNC(=N)N)CCCCCCCCNC(=N)NC(C)C.O=C(O)C(F)(F)F
MIC (Klebsiella pneumoniae): 1 µg/mL | MIC (Acinetobacter baumannii): 8 µg/mL | MIC (Streptococcus pyogenes): 0.5 µg/mL | MIC (Pseudomonas aeruginosa): 8 µg/mL | MIC (Bacillus subtilis): 0.5 µg/mL | MIC (Enterococcus faecalis): 0.5 µg/mL | MIC (Staphylococcus aureus): 0.25 µg/mL | MIC (Escherichia coli): 0.5 µg/mL

N=C(N)NCCCCCCCCN(CCCCCCCCNC(=N)NCCN1CCOCC1)C(=O)N(CCCCCCCCNC(=N)N)CCCCCCCCNC(=N)NCCN1CCOCC1.O=C(O)C(F)(F)F
MIC (Klebsiella pneumoniae): 4 µg/mL | MIC (Acinetobacter baumannii): 32 µg/mL | MIC (Streptococcus pyogenes): 1 µg/mL | MIC (Pseudomonas aeruginosa): 64 µg/mL | MIC (Bacillus subtilis): 1 µg/mL | MIC (Enterococcus faecalis): 2 µg/mL | MIC (Staphylococcus aureus): 1 µg/mL | MIC (Escherichia coli): 4 µg/mL

N=C(N)NCCCCCCCCN(CCCCCCCCNC(=N)NCC1CC1)C(=O)N(CCCCCCNC(=N)N)CCCCCCNC(=N)NCC1CC1.O=C(O)C(F)(F)F
MIC (Klebsiella pneumoniae): 4 µg/mL | MIC (Acinetobacter baumannii): 16 µg/mL | MIC (Streptococcus pyogenes): 1 µg/mL | MIC (Pseudomonas aeruginosa): 16 µg/mL | MIC (Bacillus subtilis): 2 µg/mL | MIC (Enterococcus faecalis): 4 µg/mL | MIC (Staphylococcus aureus): 0.5 µg/mL | MIC (Escherichia coli): 8 µg/mL

N=C(N)NCCCCCCCCN(CCCCCCCCNC(=N)NCC1CC1)C(=O)N(CCCCCCCCNC(=N)N)CCCCCCNC(=N)NCC1CC1.O=C(O)C(F)(F)F
MIC (Klebsiella pneumoniae): 4 µg/mL | MIC (Acinetobacter baumannii): 64 µg/mL | MIC (Streptococcus pyogenes): 4 µg/mL | MIC (Pseudomonas aeruginosa): 128 µg/mL | MIC (Bacillus subtilis): 4 µg/mL | MIC (Enterococcus faecalis): 4 µg/mL | MIC (Staphylococcus aureus): 1 µg/mL | MIC (Escherichia coli): 8 µg/mL

N=C(N)NCCCCCCCCN(CCCCCCCCNC(=N)NCC1CC1)C(=O)N(CCCCCCCCNC(=N)NCC1CC1)CCCCCCNC(=N)N.O=C(O)C(F)(F)F
MIC (Klebsiella pneumoniae): 1 µg/mL | MIC (Acinetobacter baumannii): 16 µg/mL | MIC (Streptococcus pyogenes): 0.5 µg/mL | MIC (Pseudomonas aeruginosa): 16 µg/mL | MIC (Bacillus subtilis): 0.5 µg/mL | MIC (Enterococcus faecalis): 1 µg/mL | MIC (Staphylococcus aureus): 0.25 µg/mL | MIC (Escherichia coli): 1 µg/mL

CN[C@H](CC(C)C)C(=O)N[C@H]1C(=O)N[C@@H](CC(N)=O)C(=O)N[C@H]2C(=O)N[C@H]3C(=O)N[C@H](C(=O)N[C@H](C(=O)O)c4cc(O)cc(O)c4-c4cc3ccc4O)[C@H](O)c3ccc(c(Cl)c3)Oc3cc2cc(c3O[C@@H]2O[C@H](CO)[C@@H](O)[C@H](O)[C@H]2O[C@H]2C[C@](C)(N)[C@H](O)[C@H](C)O2)Oc2ccc(cc2Cl)[C@H]1O [VANCOMYCIN]
MIC (Streptococcus pyogenes): 1 µg/mL (≈ 0.69 µM) | MIC (Bacillus subtilis): 0.5 µg/mL (≈ 0.345 µM) | MIC (Enterococcus faecalis): 1 µg/mL (≈ 0.69 µM)
